Measurements: PubChem BioAssay (NCI)
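48-hour exposure; five concentrations; linearly interpolated endpoints. GI50 is the concentration that inhibits growth by half. TGI denotes the concentration required for complete inhibition of growth.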

Tests used:
Assay in all cases: NCI anticancer screen, dose series, 48 h
786-0 renal = tested on: 786-0 renal
A498 renal = tested on: A498 renal
A549 NSCLC = tested on: A549 NSCLC
ACHN renal = tested on: ACHN renal
BT-549 breast = tested on: BT-549 breast
CAKI-1 renal = tested on: CAKI-1 renal
CCRF-CEM leukemia = tested on: CCRF-CEM leukemia
COLO 205 colon = tested on: COLO 205 colon
DU-145 prostate = tested on: DU-145 prostate
EKVX NSCLC = tested on: EKVX NSCLC
HCC-2998 colon = tested on: HCC-2998 colon
HCT-116 colon = tested on: HCT-116 colon
HCT-15 colon = tested on: HCT-15 colon
HL-60(TB) leukemia = tested on: HL-60(TB) leukemia
HOP-62 NSCLC = tested on: HOP-62 NSCLC
HOP-92 NSCLC = tested on: HOP-92 NSCLC
HS 578T breast = tested on: HS 578T breast
HT29 colon = tested on: HT29 colon
IGROV1 ovarian = tested on: IGROV1 ovarian
K-562 leukemia = tested on: K-562 leukemia
KM12 colon = tested on: KM12 colon
LOX IMVI melanoma = tested on: LOX IMVI melanoma
M14 melanoma = tested on: M14 melanoma
MALME-3M melanoma = tested on: MALME-3M melanoma
MCF7 breast = tested on: MCF7 breast
MDA-MB-231 breast = tested on: MDA-MB-231 breast
MDA-MB-435 = tested on: MDA-MB-435
MDA-MB-468 breast = tested on: MDA-MB-468 breast
MOLT-4 leukemia = tested on: MOLT-4 leukemia
NCI-H226 lung = tested on: NCI-H226 lung
NCI-H23 lung = tested on: NCI-H23 lung
NCI-H460 lung = tested on: NCI-H460 lung
NCI-H522 lung = tested on: NCI-H522 lung
OVCAR-3 ovarian = tested on: OVCAR-3 ovarian
OVCAR-4 ovarian = tested on: OVCAR-4 ovarian
OVCAR-5 ovarian = tested on: OVCAR-5 ovarian
OVCAR-8 ovarian = tested on: OVCAR-8 ovarian
PC-3 prostate = tested on: PC-3 prostate
RPMI-8226 leukemia = tested on: RPMI-8226 leukemia
RXF 393 renal = tested on: RXF 393 renal
SF-268 CNS = tested on: SF-268 CNS
SF-295 CNS = tested on: SF-295 CNS
SF-539 CNS = tested on: SF-539 CNS
SK-MEL-2 melanoma = tested on: SK-MEL-2 melanoma
SK-MEL-28 melanoma = tested on: SK-MEL-28 melanoma
SK-MEL-5 melanoma = tested on: SK-MEL-5 melanoma
SK-OV-3 ovarian = tested on: SK-OV-3 ovarian
SN12C renal = tested on: SN12C renal
SNB-19 CNS = tested on: SNB-19 CNS
SR leukemia = tested on: SR leukemia
SW-620 colon = tested on: SW-620 colon
T-47D breast = tested on: T-47D breast
TK-10 renal = tested on: TK-10 renal
U251 CNS = tested on: U251 CNS
UACC-257 melanoma = tested on: UACC-257 melanoma
UACC-62 melanoma = tested on: UACC-62 melanoma
UO-31 renal = tested on: UO-31 renal

## COc1ccc2[nH]c(=O)cc(-n3ncc(C(=O)/C=C/c4cc(OC)c(OC)c(OC)c4)c3C)c2c1
786-0 renal
  GI50: 11 µM
  TGI: 25.3 µM
A498 renal
  GI50: 19.1 µM
  TGI: 36.3 µM
A549 NSCLC
  GI50: 11.5 µM
  TGI: 52.2 µM
ACHN renal
  GI50: 4.33 µM
  TGI: 16.6 µM
BT-549 breast
  GI50: 3.47 µM
  TGI: 13.8 µM
CAKI-1 renal
  GI50: 5.23 µM
  TGI: 20 µM
CCRF-CEM leukemia
  GI50: 2.76 µM
  TGI: 16.8 µM
COLO 205 colon
  GI50: 4.94 µM
  TGI: 17.2 µM
DU-145 prostate
  GI50: 3.29 µM
  TGI: 10.8 µM
EKVX NSCLC
  GI50: 5.16 µM
  TGI: 20.1 µM
HCC-2998 colon
  GI50: 11.5 µM
  TGI: 24 µM
HCT-116 colon
  GI50: 7.41 µM
  TGI: 21.7 µM
HCT-15 colon
  GI50: 3.57 µM
  TGI: 15.7 µM
HL-60(TB) leukemia
  GI50: 3.88 µM
  TGI: 29 µM
HOP-62 NSCLC
  GI50: 11.2 µM
  TGI: 26.4 µM
HOP-92 NSCLC
  GI50: 11.4 µM
  TGI: 34.9 µM
HS 578T breast
  GI50: 8.96 µM
  TGI: 95.2 µM
HT29 colon
  GI50: 3.15 µM
  TGI: 11 µM
IGROV1 ovarian
  GI50: 3.46 µM
  TGI: 13.5 µM
K-562 leukemia
  GI50: 3.24 µM
  TGI: > 100 µM
KM12 colon
  GI50: 13.2 µM
  TGI: 30.1 µM
LOX IMVI melanoma
  GI50: 2.75 µM
  TGI: 9.83 µM
M14 melanoma
  GI50: 8.64 µM
  TGI: 29.9 µM
MALME-3M melanoma
  GI50: 6.82 µM
  TGI: 19.9 µM
MCF7 breast
  GI50: 3.19 µM
  TGI: 11.9 µM
MDA-MB-231 breast
  GI50: 5.4 µM
  TGI: 18.6 µM
MDA-MB-435
  GI50: 3.81 µM
  TGI: 14.1 µM
MDA-MB-468 breast
  GI50: 2.5 µM
  TGI: 7.3 µM
MOLT-4 leukemia
  GI50: 3.81 µM
  TGI: 64.9 µM
NCI-H226 lung
  GI50: 11.1 µM
  TGI: 25.4 µM
NCI-H23 lung
  GI50: 3.5 µM
  TGI: 13 µM
NCI-H460 lung
  GI50: 3.28 µM
  TGI: 13.6 µM
NCI-H522 lung
  GI50: 3.6 µM
  TGI: 13.3 µM
OVCAR-3 ovarian
  GI50: 4.04 µM
  TGI: 13.9 µM
OVCAR-4 ovarian
  GI50: 12.4 µM
  TGI: 42.9 µM
OVCAR-5 ovarian
  GI50: 3.99 µM
  TGI: 15.1 µM
OVCAR-8 ovarian
  GI50: 3.46 µM
  TGI: 12.3 µM
PC-3 prostate
  GI50: 10 µM
  TGI: 38 µM
RPMI-8226 leukemia
  GI50: 2.91 µM
  TGI: 15 µM
RXF 393 renal
  GI50: 2.79 µM
  TGI: 9.94 µM
SF-268 CNS
  GI50: 10.4 µM
  TGI: 34.8 µM
SF-295 CNS
  GI50: 4.64 µM
  TGI: 16.6 µM
SF-539 CNS
  GI50: 2.68 µM
  TGI: 9.09 µM
SK-MEL-2 melanoma
  GI50: 6.06 µM
  TGI: 18.7 µM
SK-MEL-28 melanoma
  GI50: 5.26 µM
  TGI: 17.4 µM
SK-MEL-5 melanoma
  GI50: 10.3 µM
  TGI: 22 µM
SK-OV-3 ovarian
  GI50: 12 µM
  TGI: 36.5 µM
SN12C renal
  GI50: 3.59 µM
  TGI: 15.6 µM
SNB-19 CNS
  GI50: 11.2 µM
  TGI: 23.4 µM
SR leukemia
  GI50: 4.2 µM
  TGI: > 100 µM
SW-620 colon
  GI50: 3.54 µM
  TGI: 13.5 µM
T-47D breast
  GI50: 6.59 µM
  TGI: 43.6 µM
TK-10 renal
  GI50: 8.02 µM
  TGI: 20.9 µM
U251 CNS
  GI50: 3.91 µM
  TGI: 18.5 µM
UACC-257 melanoma
  GI50: 12.5 µM
  TGI: 26.6 µM
UACC-62 melanoma
  GI50: 7.17 µM
  TGI: 20.2 µM
UO-31 renal
  GI50: 5.62 µM
  TGI: 18.9 µM
